Earlier results, collected in patent US9068996B2, “Analyte detection method” (SPHERE MEDICAL LIMITED, priority 2010, dated 2015).
Where two headings read alike, the source gives them in different places.

Conditions: for average blood propofol concentration required: patients

In the case of CC(C)c1cccc(C(C)C)c1O [propofol, 2,6-di-isopropylphenol], the “Blood propofol concentration at which 50% of patients (EC50) were awake” value (after surgery, awake) is listed as 1.07 µg/mL, the “Blood propofol concentration at which 50% of patients (EC50) were oriented” value (after surgery, oriented) is listed as 0.95 µg/mL and the “average blood propofol concentration required” value (major surgery) is listed as 4.05 ± 1.01 µg/mL. For the same compound, the “average blood propofol concentration required” value (non-major surgery) was 2.97 ± 1.07 µg/mL.
